According to article PMC11844072, “Novel 5,6-dichlorobenzimidazole derivatives as dual BRAFWT and BRAFV600E inhibitors: design, synthesis, anti-cancer activity and molecular dynamics simulations” (BMC Chemistry, 2025):

Columns and labels:
MDA-MB-231/ATCC = assay: NCI 60 single concentration growth inhibition; assay type: cell-based, human; conditions: Homo sapiens, Breast cancer, read-out: GI%
Experimental: (§1) The synthesized dichlorobenzimidazoles 10a–p were assayed for their influence on divers cancer cell lines according to the method presented in the Additional file A.
(§2) 5. Screening of cytotoxic activity against a panel of sixty human tumor cell lines
(§3) The selected compounds by NCI were evaluated for their anticancer activity in a two-stage process. First, these compounds were screened against the full NCI 60 cell lines panel at a single high dose of 10 µM. Then, the output from the single dose screen is reported as a mean graph. […]
(§4) at five different minimal concentrations.
(§5) Assay protocol. The human tumor cell lines of the cancer screening panel are grown in RPMI 1640 medium containing 5% fetal bovine serum and 2 mM L-glutamine. For a typical screening experiment, cells are inoculated into 96 well microtiter plates in 100 µL at plating densities ranging from 5000 to 40,000 cells/well depending on the doubling time of individual cell lines. After cell inoculation, the microtiter plates are incubated at 37 °C, 5% CO 2, 95% air and 100% relative humidity for 24 h prior to addition of the experimental drugs.
(§6) After 24 h, two plates of each cell line are fixed in situ with TCA, to represent a measurement of the cell population for each cell line at the time of drug addition (Tz). The experimental drugs are solubilized in dimethyl sulfoxide at 400-fold the desired final maximum test concentration and stored frozen prior to use. At the time of drug addition, an aliquot of frozen concentrate is thawed and diluted to twice the desired final maximum test concentration with complete medium containing 50 µg/mL gentamicin. Additional four, 10-fold or ½ log serial dilutions are made to provide a total of five drug concentrations plus control.
(§7) Aliquots of […] of these different drug dilutions are added to the appropriate microtiter wells already containing […] of medium, resulting in the required final drug concentrations.
(§8) Following drug addition, the plates are incubated for an additional 48 h at 37 °C, 5% CO 2, 95% air, and 100% relative humidity. For adherent cells, the assay is terminated by the addition of cold TCA.
(§9) Cells are fixed in situ by the gentle addition of 50 µL of cold 50% (w/v) TCA (final concentration, 10% TCA) and incubated for 60 min at 4 °C. The supernatant is discarded, and the plates are washed five times with tap water and air dried. Sulforhodamine B (SRB) solution ([…]) at 0.4% (w/v) in 1% acetic acid is added to each well, and plates are incubated for 10 min at room temperature. After staining, unbound dye is removed by washing five times with 1% acetic acid and the plates are air dried. Bound stain is subsequently solubilized with 10 mM trizma base, and the absorbance is read on an automated plate reader at a wavelength of 515 nm. For suspension cells, the methodology is […]
(§10) the same except that the assay is terminated by fixing settled cells at the bottom of the wells by gently adding 50 µl of 80% TCA (final concentration, 16% TCA). Using the seven absorbance measurements [time zero, (Tz), control growth, (C), and test growth in the presence of drug at the five concentration levels (Ti)], the percentage growth is calculated at each of the drug concentrations […]
(§11) Percentage growth inhibition is calculated as: [(Ti Tz)/(C–Tz)] x 100 for concentrations for which Ti>/=Tz and [(Ti-Tz)/Tz] x 100 for concentrations for which Ti < Tz.
(§12) Three dose response parameters are calculated for each experimental agent. Growth […]
(§13) concentration resulting in a 50% reduction in the net protein increase (as measured by SRB staining) in control cells during the drug incubation. The drug concentration resulting in total growth inhibition (TGI) is calculated from Ti = Tz. […]
(§14) reduction in the measured protein at the end of the drug treatment as compared to that at the beginning) indicating a net loss of cells following treatment is calculated from [(Ti–Tz)/Tz] x 100 =
(§15) _50. Values are calculated for each of these three parameters if the level of activity is reached; […]

SF-295 = assay: NCI 60 single concentration growth inhibition; assay type: cell-based, human; conditions: Homo sapiens, SF-295, CNS cancer, read-out: GI%
Experimental: as §1, §2, §3, §4, §5, §6, §7, §8, §9, §10, §11, §12, §13, §14, §15

HL-60(TB) = assay: NCI 60 single concentration growth inhibition; assay type: cell-based, human; conditions: Homo sapiens, Leukemia, read-out: GI%
Experimental: as §1, §2, §3, §4, §5, §6, §7, §8, §9, §10, §11, §12, §13, §14, §15

SK-MEL-5 = assay: NCI 60 single concentration growth inhibition; assay type: cell-based, human; conditions: Homo sapiens, SK-MEL-5, Melanoma, read-out: GI%
Experimental: as §1, §2, §3, §4, §5, §6, §7, §8, §9, §10, §11, §12, §13, §14, §15

SK-MEL-2 = assay: NCI 60 single concentration growth inhibition; assay type: cell-based, human; conditions: Homo sapiens, SK-MEL-2, Melanoma, read-out: GI%
Experimental: as §1, §2, §3, §4, §5, §6, §7, §8, §9, §10, §11, §12, §13, §14, §15

OVCAR-8 = assay: NCI 60 single concentration growth inhibition; assay type: cell-based, human; conditions: Homo sapiens, OVCAR-8, Ovarian cancer, read-out: GI%
Experimental: as §1, §2, §3, §4, §5, §6, §7, §8, §9, §10, §11, §12, §13, §14, §15

[1] = system: NCI 60 cancer cell line panel; assay: NCI 60 single concentration growth inhibition, panel mean; assay type: cell-based; conditions: Homo sapiens, mean over NCI 60 panel, read-out: Mean GI%
Experimental: as §1, §2, §3, §4, §5, §6, §7, §8, §9, §10, §11, §12, §13, §14, §15

BRAFWT = target: T1, BRAFWT (Homo sapiens, UniProt P15056); assay: BRAFWT kinase assay kit (Kinase-Glo Max luminescence); assay type: biochemical; conditions: BRAFwt, 10 µM; mean of two independent experiments ± SD
T1 construct: purchased BPS Biosciences 78316
Experimental: The inhibitory activities of 10a–p on BRAFWT was examined utilizing BRAFWT assay kit (BPS Biosciences—San Diego—CA—US) (For further information see Additional file A).
4. Biochemical kinase assays
The inhibitory activity against different kinases was determined using kinase kits (BRAF WT […]
Glo Max luminescence kinase assay kit (Promega).
The assay was carried out according to the protocol provided by the manufacturer. A stock solution of the synthesized derivatives in 100% DMSO was prepared. Subsequently, the compounds were diluted to 10% DMSO.
A master mixture was prepared according to the number of wells. For BRAF assay each well include 6 μl of 5x Kinase Buffer 1 + 1 μl of ATP (500 μM) + 10 μl of 5X Raf substrate + 8 μl of distilled water. 1x Kinase buffer 1 was prepared by mixing 600 μl of 5x Kinase Buffer 1 with 2400 μl water to give 3 mL. Kinases were thawed on ice and were diluted with 1x Kinase Buffer 1.
To start the biochemical reaction, 25 µL of the master mixture was added to each well in 96 well plate. 5 µL of 10% DMSO was added to positive control wells and blank wells. 5 µL of diluted inhibitor was added to each well labelled with the test inhibitor so that the final concentration of DMSO is 1% in all reactions. Then 20 µL of (2.5 ng/μl) in case of BRAF WT and (1 ng / μl) in case of VEGFR-2 and FGFR-1 in 1x kinase buffer was added to positive control wells and wells labelled with the inhibitor, while 20 µL 1x kinase buffer 1 was added to the blank wells.
The plate was incubated at 30 °C for 45 min. Subsequently, 50 μl of Kinase-Glo Max luminescence reagent was added to each well and the plate was covered with aluminum foil and incubated at room temperature for 15 min. Finally, the luminescence was recorded using multimode microplate reader. Kinase activity assays were performed in duplicate at each concentration.
The luminescence data were analyzed as follows. The difference between luminescence intensities in the absence of kinase (Lu t) and in the presence of kinase (Lu c) was defined as 100 % […]
calculated as: % activity = {(Lu t - Lu)/(Lut - Luc)} ×100%. The concentration of the test compounds required to reduce the kinase activity by 50% was determined from dose-response curves and […]

T1 sequence (P15056 whole entry): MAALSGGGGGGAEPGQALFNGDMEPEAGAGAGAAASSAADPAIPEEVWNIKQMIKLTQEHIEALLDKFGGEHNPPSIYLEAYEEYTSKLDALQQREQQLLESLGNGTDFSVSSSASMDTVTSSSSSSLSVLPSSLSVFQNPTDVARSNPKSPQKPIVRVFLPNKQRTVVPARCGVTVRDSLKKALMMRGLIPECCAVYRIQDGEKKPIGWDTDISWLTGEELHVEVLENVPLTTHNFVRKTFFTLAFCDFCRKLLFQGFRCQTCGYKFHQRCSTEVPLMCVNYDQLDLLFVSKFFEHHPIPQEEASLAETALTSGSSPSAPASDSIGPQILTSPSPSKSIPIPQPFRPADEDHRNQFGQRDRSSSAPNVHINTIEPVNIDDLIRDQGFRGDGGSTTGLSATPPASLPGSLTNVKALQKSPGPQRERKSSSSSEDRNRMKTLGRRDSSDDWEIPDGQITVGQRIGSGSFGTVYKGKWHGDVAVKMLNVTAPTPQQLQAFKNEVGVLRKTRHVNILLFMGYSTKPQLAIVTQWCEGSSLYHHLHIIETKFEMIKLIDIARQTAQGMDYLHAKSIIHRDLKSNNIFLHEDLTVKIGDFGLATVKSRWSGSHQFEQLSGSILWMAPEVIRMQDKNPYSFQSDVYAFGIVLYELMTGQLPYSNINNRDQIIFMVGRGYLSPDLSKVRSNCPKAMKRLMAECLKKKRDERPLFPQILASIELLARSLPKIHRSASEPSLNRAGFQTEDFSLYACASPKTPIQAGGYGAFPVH

| SMILES | inhibition at 10 µM (MDA-MB-231/ATCC) | inhibition at 10 µM (SF-295) | inhibition at 10 µM (HL-60(TB)) | inhibition at 10 µM (SK-MEL-5) | inhibition at 10 µM (SK-MEL-2) | inhibition at 10 µM (OVCAR-8) | inhibition at 10 µM [1] | inhibition at 10 µM (BRAFWT) |
| --- | --- | --- | --- | --- | --- | --- | --- | --- |
| CCOC(=O)C(C)Oc1ccc(C=NNC(=O)Cn2c(-c3ccc(OC)cc3)nc3cc(Cl)c(Cl)cc32)cc1 (stereo not drawn) [Compound 10j, Ethyl-2-(4-((2-(2-(5,6-dichloro-2-(4-methoxyphenyl)-1H-benzo[d]imidazol-1-yl)acetyl) hydrazono)methyl)phenoxy)propanoate] | 17.2% | 21% | 6.19% | 25.2% | 8.36% | 20.7% | 18.4% | 70.2 ± 6.16% |
| COC(=O)COc1cc(C=NNC(=O)Cn2c(-c3ccc(OC)cc3)nc3cc(Cl)c(Cl)cc32)ccc1OC [Compound 10o, Methyl-2-(5-((2-(2-(5,6-dichloro-2-(4-methoxyphenyl)-1H-benzo[d]imidazol-1-yl)acetyl)hydrazono)methyl)-2-methoxyphenoxy)acetate] | 90.1% | < 5% | < 5% | 6.53% | 26.6% | 69.8% | 34.6% | 34.3 ± 3.31% |
| COc1ccc(-c2nc3cc(Cl)c(Cl)cc3n2CC(=O)NN=Cc2cccc(OC)c2)cc1 [Compound 10c, 2-(5,6-Dichloro-2-(4-methoxyphenyl)-1H-benzo[d]imidazol-1-yl)-N'-(3-methoxybenzylidene)acetohydrazide] | 15.1% | 22.3% | 28.8% | 44.5% | 19.4% | 13.5% | 28.1% | 53.85 ± 0.001% |
| COC(=O)COc1cccc(C=NNC(=O)Cn2c(-c3ccc(OC)cc3)nc3cc(Cl)c(Cl)cc32)c1 [Compound 10g, Methyl-2-(3-((2-(2-(5,6-dichloro-2-(4-methoxyphenyl)-1H-benzo[d]imidazol-1-yl)acetyl)hydrazono)methyl)phenoxy)acetate] | 21.6% | < 5% | < 5% | 8.95% | < 5% | 84.2% | 14.6% | 39.9 ± 2.49% |
| COc1ccc(-c2nc3cc(Cl)c(Cl)cc3n2CC(=O)NN=Cc2cccc(OCC(=O)O)c2)cc1 [Compound 10e, 2-(3-((2-(2-(5,6-Dichloro-2-(4-methoxyphenyl)-1H-benzo[d]imidazol-1-yl)acetyl)hydrazono)methyl)phenoxy)acetic acid] | < 5% | < 5% | < 5% | < 5% | < 5% | < 5% | < 5% | 28.1 ± 2.76% |
| COc1ccc(-c2nc3cc(Cl)c(Cl)cc3n2CC(=O)NN=Cc2cccc(O)c2)cc1 [Compound 10a, 2-(5,6-Dichloro-2-(4-methoxyphenyl)-1H-benzo[d]imidazol-1-yl)-N'-(3-hydroxybenzylidene)acetohydrazide] | 20% | 67.8% | 42.6% | 79.7% | 33.6% | 29.5% | 46.9% | 22.5 ± 1% |
